Data as given in the supplement of paper PMC10627819.

What was measured:
[1] = test system: B. subtilis 168; experiment: fitness (endpoint OD595 vs no drug) (fraction); higher = more growth
Method in brief: (§1)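 Bacterial fitness was scored as optical density at the stationary-phase transition relative to the robust mean of no-drug control wells. Scores are capped at 1. The growth data were OD595 readings every 30 min for 14 h at 37 °C, background-subtracted against the first reading, from 384-well plates inoculated at OD595 0.01 in TSB, LB Lennox or CY.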

[2] = test system: S. aureus Newman; experiment: as above
Method in brief: as §1

[3] = test system: S. pneumoniae D39V; experiment: as above
Method in brief: as §1

[4] = test system: B. subtilis 168; experiment: Bliss interaction score (quartile over a dose matrix) (fitness difference); higher = more antagonism (negative = synergy)
Method in brief: (§2)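 The Bliss score is observed minus expected fitness, where expected fitness is the product of the single-drug fitness values inferred from the combination data. Fitness is the OD595 at the onset of stationary phase over the plate's robust no-drug mean, capped at 1. Scores are summarised by quartiles over technical, biological and donor/recipient replicates.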

[5] = test system: S. aureus DSM 20231; experiment: as above
Method in brief: as §2

[6] = test system: S. aureus Newman; experiment: as above
Method in brief: as §2

[7] = test system: S. pneumoniae D39V; experiment: as above
Method in brief: as §2
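Throughout, for Bliss interaction score (quartile over a dose matrix): first quartile when negative (synergy) and third quartile when positive (antagonism).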
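Throughout, for fitness (endpoint OD595 vs no drug): OD595 on entry to stationary phase over no-drug wells; at most 1.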

O=C(O)c1cn(C2CC2)c2cc(N3CCNCC3)c(F)cc2c1=O [Ciprofloxacin] + CN(C)c1cc(NC(=O)CNC(C)(C)C)c(O)c2c1C[C@H]1C[C@H]3[C@H](N(C)C)C(O)=C(C(N)=O)C(=O)[C@@]3(O)C(O)=C1C2=O [Tigecycline]
Settings	fitness
[1], first compound 0.0098 µg/mL, partner 0.039 µg/mL	0.919
[1], first compound 0.0098 µg/mL, partner 0.078 µg/mL	0.889
[1], first compound 0.0098 µg/mL, partner 0.156 µg/mL	0.821
[1], first compound 0.0195 µg/mL, partner 0.039 µg/mL	0.758
[1], first compound 0.0195 µg/mL, partner 0.078 µg/mL	0.697
[1], first compound 0.0195 µg/mL, partner 0.156 µg/mL	0.713
[2], first compound 0.0375 µg/mL, partner 0.078 µg/mL	0.735
[2], first compound 0.0375 µg/mL, partner 0.156 µg/mL	0.735
[2], first compound 0.075 µg/mL, partner 0.039 µg/mL	0.656
[2], first compound 0.075 µg/mL, partner 0.078 µg/mL	0.698
[2], first compound 0.075 µg/mL, partner 0.156 µg/mL	0.683
[2], first compound 0.15 µg/mL, partner 0.039 µg/mL	0.0882
[2], first compound 0.15 µg/mL, partner 0.078 µg/mL	0.045
[2], first compound 0.15 µg/mL, partner 0.156 µg/mL	0.07
[3], first compound 0.125 µg/mL, partner 0.325 µg/mL	0.944
[3], first compound 0.125 µg/mL, partner 0.65 µg/mL	0.895
[3], first compound 0.125 µg/mL, partner 1.3 µg/mL	0.945
[3], first compound 0.125 µg/mL, partner 2.6 µg/mL	0.856
[3], first compound 0.25 µg/mL, partner 0.65 µg/mL	0.795
[3], first compound 0.25 µg/mL, partner 1.3 µg/mL	0.83
[3], first compound 0.25 µg/mL, partner 2.6 µg/mL	0.767
[3], first compound 0.5 µg/mL, partner 2.6 µg/mL	0.588

fitness, one replicate
Settings	first compound 0.0098 µg/mL	first compound 0.0195 µg/mL	first compound 0.039 µg/mL	first compound 0.25 µg/mL
[1], partner 0.125 µg/mL	≥ 1	0.964	0.709	–
[1], partner 0.25 µg/mL	0.868	0.849	0.335	–
[1], partner 0.5 µg/mL	0.901	0.828	0.313	–
[3], partner 0.325 µg/mL	–	–	–	0.834

Settings	Bliss interaction score
[4]	-0.0691
[5]	0.0365
[6]	-0.0448
[7]	-0.0751

O=C(O)c1cn(C2CC2)c2cc(N3CCNCC3)c(F)cc2c1=O [Ciprofloxacin] + CN(N=O)C(=O)N[C@@H](C=O)[C@@H](O)[C@H](O)[C@H](O)CO [Streptozotocin]
Settings	fitness
[1], first compound 0.0098 µg/mL, partner 0.15 µg/mL	0.886
[1], first compound 0.0098 µg/mL, partner 0.3 µg/mL	0.954
[1], first compound 0.0098 µg/mL, partner 0.6 µg/mL	0.887
[1], first compound 0.0195 µg/mL, partner 0.15 µg/mL	0.674
[1], first compound 0.0195 µg/mL, partner 0.3 µg/mL	0.678
[1], first compound 0.0195 µg/mL, partner 0.6 µg/mL	0.666
[1], first compound 0.039 µg/mL, partner 0.15 µg/mL	0.117
[1], first compound 0.039 µg/mL, partner 0.3 µg/mL	0.119
[1], first compound 0.039 µg/mL, partner 0.6 µg/mL	0.13
[2], first compound 0.0375 µg/mL, partner 0.15 µg/mL	0.602
[2], first compound 0.0375 µg/mL, partner 0.3 µg/mL	0.565
[2], first compound 0.0375 µg/mL, partner 0.6 µg/mL	0.398
[2], first compound 0.075 µg/mL, partner 0.15 µg/mL	0.448
[2], first compound 0.075 µg/mL, partner 0.6 µg/mL	0.194
[2], first compound 0.15 µg/mL, partner 0.15 µg/mL	0.0223
[2], first compound 0.15 µg/mL, partner 0.3 µg/mL	0.0444
[2], first compound 0.15 µg/mL, partner 0.6 µg/mL	0.0059
[3], first compound 0.125 µg/mL, partner 1.2 µg/mL	0.929
[3], first compound 0.125 µg/mL, partner 2.4 µg/mL	0.926
[3], first compound 0.125 µg/mL, partner 4.8 µg/mL	0.95
[3], first compound 0.25 µg/mL, partner 1.2 µg/mL	0.839
[3], first compound 0.25 µg/mL, partner 4.8 µg/mL	0.797
[3], first compound 0.5 µg/mL, partner 4.8 µg/mL	0.567

Settings	Bliss interaction score
[4]	-0.082
[5]	-0.0435
[6]	-0.112
[7]	-0.0511

O=C(O)c1cn(C2CC2)c2cc(N3CCNCC3)c(F)cc2c1=O [Ciprofloxacin] + CC(C1CCC(C(O1)OC2C(CC(C(C2O)OC3C(C(C(CO3)(C)O)NC)O)N)N)N)NC [Gentamicin]
main component drawn
Settings	fitness
[1], first compound 0.0098 µg/mL, partner 0.0625 µg/mL	0.881
[1], first compound 0.0195 µg/mL, partner 0.0625 µg/mL	0.703
[1], first compound 0.039 µg/mL, partner 0.25 µg/mL	0.117
[2], first compound 0.0375 µg/mL, partner 0.5 µg/mL	0.786
[2], first compound 0.0375 µg/mL, partner 1 µg/mL	0.877
[2], first compound 0.0375 µg/mL, partner 2 µg/mL	0.917
[2], first compound 0.075 µg/mL, partner 0.5 µg/mL	0.74
[2], first compound 0.075 µg/mL, partner 1 µg/mL	0.786
[2], first compound 0.075 µg/mL, partner 2 µg/mL	0.783
[2], first compound 0.15 µg/mL, partner 0.5 µg/mL	0.43
[3], first compound 0.125 µg/mL, partner 2 µg/mL	0.954
[3], first compound 0.125 µg/mL, partner 4 µg/mL	0.92
[3], first compound 0.125 µg/mL, partner 8 µg/mL	0.884
[3], first compound 0.25 µg/mL, partner 2 µg/mL	0.792
[3], first compound 0.25 µg/mL, partner 4 µg/mL	0.766
[3], first compound 0.25 µg/mL, partner 8 µg/mL	0.677

fitness, [2], one replicate, main component drawn
Settings	first compound 0.0375 µg/mL	first compound 0.075 µg/mL	first compound 0.15 µg/mL
partner 0.375 µg/mL	0.704	0.787	0.0591
partner 0.75 µg/mL	0.712	0.728	0.0774
partner 1.5 µg/mL	0.639	0.175	0.0856

main component drawn
Settings	Bliss interaction score
[4]	0.19
[5]	0.0655
[6]	0.12
[7]	-0.0953
